Test results taken from patent US20150050371A1, “Extract Formulations of Rhodamnia Cinerea And Uses Thereof” (BIOTROPICS MALAYSIA BERHAD, priority 2012, published 2015).
Marks after values point to notes of the source that are not given here.

Test system: normal male Wistar rats
Assay: Acute Starch Tolerance Test (STT), glycemia after oral wheat starch
Type: in vivo, rat
Conditions: 5 mg/kg oral
Experimental: An acute Starch Tolerance Test (STT) was performed by the administration by oral gavage of a 7.5% purified wheat starch solution at 1.5 g/kg of body weight to normal male Wistar rats. The effect of a concomitantly administered hot water extract formulation from Rhodamnia cinerea leaves (BTP-00167-14; ref. example 1.2) on the glycemic index was measured at different doses orally administered (50 and 200 mg/kg of body weight). The extract formulation BTP-00167-14 was administered by oral route concomitantly with wheat starch solutions. Glycemia was measured before and 15, 30, 60, 90, and 120 min after mixture administration. The positive control group received acarbose at 5 mg/kg of body weight together with the starch. The actual volume administered to each rat was calculated and adjusted based on the most recent body weight of each animal. STT onset was between 12:00 p.m. (noon) and 1:00 p.m. on animals fasted overnight. Blood samples (one drop) were collected via the tail vein for glucose determination using a hand-held glucometer before and 15, 30, 60, 90, and 120 min after starch administration. Seven-week old rats weighing around 135 g were used for the experiment. One day before the test, rats were randomly assigned to the different experimental groups. Delta glycemia values were calculated by subtraction of the pre-STT glycemia values (Time 0). Values represent average (i.e. mean) values.

C[C@H]1O[C@H](O[C@H]2[C@H](O)[C@@H](O)[C@@H](O[C@H]3[C@H](O)[C@@H](O)C(O)O[C@@H]3CO)O[C@@H]2CO)[C@H](O)[C@@H](O)[C@@H]1N[C@H]1C=C(CO)[C@@H](O)[C@H](O)[C@H]1O (stereo partly drawn) [Acrabose, acarbose]
Glycemia 15 min (15 min after starch): 72.4** mg/dL
Glycemia 30 min (30 min after starch): 83.7** mg/dL
Glycemia 60 min (60 min after starch): 71.7** mg/dL
Glycemia 90 min (90 min after starch): 66.0** mg/dL
Glycemia 120 min (120 min after starch): 61.9** mg/dL
Glycemia 0 min (before administration): 55.0 mg/dL
